# Test results published in ChEMBL document CHEMBL3885861, “Open TG-GATES”.
# Species: Rattus norvegicus
# Experiment: Open TG-GATES - Regimen: Daily Repeat
# Format: toxicity, organism-based, Sprague-Dawley
# Set-up: regimen Daily Repeat, gender Male, age 6 weeks
# Conditions: in vivo, po, 0 mg/kg, route gavage, dose level Control; for APTT / Bas / Eos / Fbg / Hb / Ht / Lym / MCH / MCHC / MCV / Mono / Neu / PT / Plat / RBC / Ret / WBC: tissue Blood; for KIDNEY_L / KIDNEY_R / KIDNEY_TOTAL: tissue Kidney; for LIVER: tissue Liver; for A/G / ALP / ALT / AST / BUN / CRE / Ca / Cl / DBIL / GLC / IP / K / LDH / Na / PL / RALB / TBIL / TC / TG / TP / gamma-GTP: tissue Plasma
smiles,measurement,setting,value
CC1=C(/C=C/C(C)=C/C=C/C(C)=C/CO)C(C)(C)CCC1 [RETINOL],TERMINAL_BW,"72 h, time 3 day",232.6 g
same,APTT,"72 h, time 3 day",21.2 s
same,Bas,"72 h, time 3 day",0%
same,Eos,"72 h, time 3 day",0.8%
same,Fbg,"72 h, time 3 day",302.6 mg/dL
same,Hb,"72 h, time 3 day",13.6 g/dL
same,Ht,"72 h, time 3 day",39.5%
same,Lym,"72 h, time 3 day",81.8%
same,MCH,"72 h, time 3 day",21.4 pg
same,MCHC,"72 h, time 3 day",34.4%
same,MCV,"72 h, time 3 day",62 fL
same,Mono,"72 h, time 3 day",2.8%
same,Neu,"72 h, time 3 day",14%
same,PT,"72 h, time 3 day",16.6 s
same,Plat,"72 h, time 3 day",116.8 x10_4/uL
same,RBC,"72 h, time 3 day",637 x10_4/ul
same,Ret,"72 h, time 3 day",6.6%
same,WBC,"72 h, time 3 day",108.7 x10_2/uL
same,KIDNEY_L,"72 h, time 3 day",1.1 g
same,KIDNEY_R,"72 h, time 3 day",1.1 g
same,KIDNEY_TOTAL,"72 h, time 3 day",2.1 g
same,LIVER,"72 h, time 3 day",11 g
same,A/G,"72 h, time 3 day",1.2
same,ALP,"72 h, time 3 day",1642.8 IU/L
same,ALT,"72 h, time 3 day",49.4 IU/L
same,AST,"72 h, time 3 day",76.2 IU/L
same,BUN,"72 h, time 3 day",18.6 mg/dL
same,CRE,"72 h, time 3 day",0.1 mg/dL
same,Ca,"72 h, time 3 day",10.9 mg/dL
same,Cl,"72 h, time 3 day",106.8 meq/L
same,DBIL,"72 h, time 3 day",0 mg/dL
same,GLC,"72 h, time 3 day",199.8 mg/dL
same,IP,"72 h, time 3 day",6.8 mg/dL
same,K,"72 h, time 3 day",4.6 meq/L
same,LDH,"72 h, time 3 day",251.8 IU/L
same,Na,"72 h, time 3 day",141.2 meq/L
same,PL,"72 h, time 3 day",145.4 mg/dL
same,RALB,"72 h, time 3 day",3 g/dL
same,TBIL,"72 h, time 3 day",0.012 mg/dL
same,TC,"72 h, time 3 day",76.2 mg/dL
same,TG,"72 h, time 3 day",94.8 mg/dL
same,TP,"72 h, time 3 day",5.5 g/dL
same,gamma-GTP,"72 h, time 3 day",1 IU/L
same,TERMINAL_BW,"[…], time 7 day",257.6 g
same,TERMINAL_BW,"[…], time 14 day",301.9 g
same,TERMINAL_BW,"[…], time 28 day",374.5 g
same,APTT,"[…], time 7 day",20.5 s
same,Bas,"[…], time 7 day",0%
same,Eos,"[…], time 7 day",0.8%
same,Fbg,"[…], time 7 day",304.8 mg/dL
same,Hb,"[…], time 7 day",13.6 g/dL
same,Ht,"[…], time 7 day",38.8%
same,Lym,"[…], time 7 day",79.6%
same,MCH,"[…], time 7 day",20.9 pg
same,MCHC,"[…], time 7 day",35.1%
same,MCV,"[…], time 7 day",59.7 fL
same,Mono,"[…], time 7 day",2.2%
same,Neu,"[…], time 7 day",16.4%
same,PT,"[…], time 7 day",16.3 s
same,Plat,"[…], time 7 day",117.2 x10_4/uL
same,RBC,"[…], time 7 day",650.4 x10_4/ul
same,Ret,"[…], time 7 day",5.1%
same,WBC,"[…], time 7 day",114.1 x10_2/uL
same,APTT,"[…], time 14 day",21.4 s
same,Bas,"[…], time 14 day",0%
same,Eos,"[…], time 14 day",0.4%
same,Fbg,"[…], time 14 day",312 mg/dL
same,Hb,"[…], time 14 day",13.7 g/dL
same,Ht,"[…], time 14 day",38.7%
same,Lym,"[…], time 14 day",78%
same,MCH,"[…], time 14 day",20.9 pg
same,MCHC,"[…], time 14 day",35.4%
same,MCV,"[…], time 14 day",59.2 fL
same,Mono,"[…], time 14 day",2%
same,Neu,"[…], time 14 day",18.2%
same,PT,"[…], time 14 day",16.1 s
same,Plat,"[…], time 14 day",122.4 x10_4/uL
same,RBC,"[…], time 14 day",654 x10_4/ul
same,Ret,"[…], time 14 day",5.2%
same,WBC,"[…], time 14 day",121.8 x10_2/uL
same,APTT,"[…], time 28 day",24.2 s
same,Bas,"[…], time 28 day",0%
same,Eos,"[…], time 28 day",1%
same,Fbg,"[…], time 28 day",354.8 mg/dL
same,Hb,"[…], time 28 day",15.1 g/dL
same,Ht,"[…], time 28 day",42.6%
same,Lym,"[…], time 28 day",83.8%
same,MCH,"[…], time 28 day",19.5 pg
same,MCHC,"[…], time 28 day",35.5%
same,MCV,"[…], time 28 day",54.8 fL
same,Mono,"[…], time 28 day",1.6%
same,Neu,"[…], time 28 day",12.6%
same,PT,"[…], time 28 day",15.8 s
same,Plat,"[…], time 28 day",113.8 x10_4/uL
same,RBC,"[…], time 28 day",778.2 x10_4/ul
same,Ret,"[…], time 28 day",2.6%
same,WBC,"[…], time 28 day",112.5 x10_2/uL
same,KIDNEY_L,"[…], time 7 day",1.1 g
same,KIDNEY_R,"[…], time 7 day",1.1 g
same,KIDNEY_TOTAL,"[…], time 7 day",2.2 g
same,KIDNEY_L,"[…], time 14 day",1.2 g
same,KIDNEY_R,"[…], time 14 day",1.2 g
same,KIDNEY_TOTAL,"[…], time 14 day",2.4 g
same,KIDNEY_L,"[…], time 28 day",1.4 g
same,KIDNEY_R,"[…], time 28 day",1.4 g
same,KIDNEY_TOTAL,"[…], time 28 day",2.7 g
same,LIVER,"[…], time 7 day",12.5 g
same,LIVER,"[…], time 14 day",13.8 g
same,LIVER,"[…], time 28 day",15.6 g
same,A/G,"[…], time 7 day",1.3
same,ALP,"[…], time 7 day",1920 IU/L
same,ALT,"[…], time 7 day",39.6 IU/L
same,AST,"[…], time 7 day",67.6 IU/L
same,BUN,"[…], time 7 day",17.4 mg/dL
same,CRE,"[…], time 7 day",0.2 mg/dL
same,Ca,"[…], time 7 day",10.7 mg/dL
same,Cl,"[…], time 7 day",106.4 meq/L
same,DBIL,"[…], time 7 day",0 mg/dL
same,GLC,"[…], time 7 day",189 mg/dL
same,IP,"[…], time 7 day",6.2 mg/dL
same,K,"[…], time 7 day",4.4 meq/L
same,LDH,"[…], time 7 day",219.6 IU/L
same,Na,"[…], time 7 day",142 meq/L
same,PL,"[…], time 7 day",145.2 mg/dL
same,RALB,"[…], time 7 day",3.2 g/dL
same,TBIL,"[…], time 7 day",0.002 mg/dL
same,TC,"[…], time 7 day",74 mg/dL
same,TG,"[…], time 7 day",109.6 mg/dL
same,TP,"[…], time 7 day",5.6 g/dL
same,gamma-GTP,"[…], time 7 day",1.2 IU/L
same,A/G,"[…], time 14 day",1.3
same,ALP,"[…], time 14 day",1383 IU/L
same,ALT,"[…], time 14 day",34.6 IU/L
same,AST,"[…], time 14 day",64.6 IU/L
same,BUN,"[…], time 14 day",17.4 mg/dL
same,CRE,"[…], time 14 day",0.2 mg/dL
same,Ca,"[…], time 14 day",10.8 mg/dL
same,Cl,"[…], time 14 day",106 meq/L
same,DBIL,"[…], time 14 day",0 mg/dL
same,GLC,"[…], time 14 day",201.8 mg/dL
same,IP,"[…], time 14 day",6.1 mg/dL
same,K,"[…], time 14 day",4.2 meq/L
same,LDH,"[…], time 14 day",226.8 IU/L
same,Na,"[…], time 14 day",142 meq/L
same,PL,"[…], time 14 day",152 mg/dL
same,RALB,"[…], time 14 day",3.2 g/dL
same,TBIL,"[…], time 14 day",0.004 mg/dL
same,TC,"[…], time 14 day",74.8 mg/dL
same,TG,"[…], time 14 day",103 mg/dL
same,TP,"[…], time 14 day",5.9 g/dL
same,gamma-GTP,"[…], time 14 day",1.2 IU/L
same,A/G,"[…], time 28 day",1.2
same,ALP,"[…], time 28 day",1062.8 IU/L
same,ALT,"[…], time 28 day",43.4 IU/L
same,AST,"[…], time 28 day",65.4 IU/L
same,BUN,"[…], time 28 day",16.8 mg/dL
same,CRE,"[…], time 28 day",0.2 mg/dL
same,Ca,"[…], time 28 day",10.6 mg/dL
same,Cl,"[…], time 28 day",106 meq/L
same,DBIL,"[…], time 28 day",0 mg/dL
same,GLC,"[…], time 28 day",194 mg/dL
same,IP,"[…], time 28 day",6.3 mg/dL
same,K,"[…], time 28 day",4 meq/L
same,LDH,"[…], time 28 day",145.6 IU/L
same,Na,"[…], time 28 day",141.2 meq/L
same,PL,"[…], time 28 day",147 mg/dL
same,RALB,"[…], time 28 day",3.3 g/dL
same,TBIL,"[…], time 28 day",0.026 mg/dL
same,TC,"[…], time 28 day",78 mg/dL
same,TG,"[…], time 28 day",100.8 mg/dL
same,TP,"[…], time 28 day",6.1 g/dL
same,gamma-GTP,"[…], time 28 day",1.2 IU/L
